Laboratory results from US12649748B2, “Wee1 inhibitor and use thereof” (JIANGSU TASLY DIYI PHARMACEUTICAL CO., LTD., priority 2021, dated 2026).
Where two headings read alike, the source gives them in different places.

Assays:
H1299 cells = test: Anti-proliferative effect by Cell Titer-Glo, H1299; type: cell-based; details: Homo sapiens, NCI-H1299, 72 h, read-out: IC50 measured value H1299
Description: (§1) Compound solutions of different concentration gradients were prepared. DMSO was dissolved to a concentration of 10 mM test compound and 10 mM reference compound AZD1775, and the compounds were serially diluted in culture medium for a total of 9 dose points, with 2 parallel replicates set at each concentration. The cell growth group without compound was used as a positive control (maximum signal control) and the medium was used as a negative control (minimum signal control), while ensuring that the final level of DMSO in each reaction well was 0.2%. After removing the medium from the 384-well plate, 25 ul of the configured compound at different concentrations was transferred into the well plate and the compound and cells were incubated in the cell incubator at 37° C. with 5% CO2 for 3 days.
(§2) The 384-well plates were removed from the cell incubator and allowed to equilibrate for 1 h to room temperature. 25 ul of Cell Titer-Glo assay was added to each well, lysed on a shaker for 2 min and then read out (Luminescence) using a BMG PHERAStar after 10 min incubation. Calculate the inhibition rate from the luminescence signal: first calculate the average of the positive control (maximum signal control) and the negative control (minimum signal control).
(§3) [formula] to calculate the rate of inhibition of the cells by different concentrations of the compounds. The IC50 of the compound on cell activity inhibition was calculated by fitting a log(inhibitor) vs. response-Variable slope model to GraphPad Prism 6. The fitted equation was: Y=Bottom+(Top−Bottom)/(1+10^((Log IC50−X)*HillSlope)), where Y represents the rate of inhibition and X represents the concentration of the known compound after Log.

Wee1 protein = biological target: T1, Wee1 protein (Homo sapiens, UniProt P30291); test: Binding of compound to Wee1 protein and Tracer 178 by TR-FRET; details: inhibitory activity against Wee1 kinase, read-out: IC50 measured value
T1 construct: purchased Thermo Fisher PR7373A
T1 sequence (P30291 whole entry): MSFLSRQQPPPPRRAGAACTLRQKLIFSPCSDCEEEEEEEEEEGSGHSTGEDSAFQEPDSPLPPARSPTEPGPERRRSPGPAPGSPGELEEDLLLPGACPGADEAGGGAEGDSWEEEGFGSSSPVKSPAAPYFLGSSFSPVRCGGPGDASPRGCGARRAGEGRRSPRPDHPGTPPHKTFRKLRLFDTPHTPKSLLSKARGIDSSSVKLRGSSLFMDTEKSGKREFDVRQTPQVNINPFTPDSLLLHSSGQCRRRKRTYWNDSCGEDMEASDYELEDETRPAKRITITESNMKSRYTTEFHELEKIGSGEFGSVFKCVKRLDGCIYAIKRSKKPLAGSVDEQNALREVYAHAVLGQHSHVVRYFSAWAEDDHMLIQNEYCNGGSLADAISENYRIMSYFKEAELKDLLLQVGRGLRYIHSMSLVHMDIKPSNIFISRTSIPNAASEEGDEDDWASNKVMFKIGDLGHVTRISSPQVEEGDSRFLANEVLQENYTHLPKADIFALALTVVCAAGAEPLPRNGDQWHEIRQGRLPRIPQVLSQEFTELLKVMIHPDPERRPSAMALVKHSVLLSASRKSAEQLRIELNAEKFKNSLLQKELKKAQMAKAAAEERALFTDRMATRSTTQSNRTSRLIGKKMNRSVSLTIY
Description: First, solutions of the compounds in different concentration gradients were prepared. […] DMSO was added as a positive control (maximal signal control) and a negative control (minimal signal control) and a final level of 0.25% DMSO was ensured in each reaction well.
WEE1 (Thermo Fisher, Cat #PR7373A) protein in buffer (50 mM Hepes pH 7.5, 10 mM MgCl2, 1 mM EGTA, 0.01% Brij-35) at 15 nM) in different concentrations of compound, and Tracer 178 (Invitrogen, PV5593) and MAb Anti-GST-Eu crypate (Cisbio, 61GSTKLA) were added to 384-well plates (Corning, cat #3574), centrifuged at 1000 rpm for 1 min and the 384-well plates were incubated in a constant temperature shaker for 60 min at 25° C. and 300 rpm. Tracer 178 and MAb Anti-GST-Eu crypate were prepared in buffer (50 mM HEPES pH 7.5, 10 mM MgCl2, 1 mM EGTA, 0.01% Brij-35) with a final reaction concentration of 50 nM for Tracer 178 and a final concentration of 2 nM for MAb Anti-GST-Eu crypate, where the negative control (minimal signal control) used an equal amount of buffer in place of the protein solution.
After incubation, readings were performed using BMG PHERAStar (excitation light at 337 nm and emission light at wavelength values of 620 nm and 665 nm to read the fluorescence signal values). […] The IC50 for inhibition of enzyme activity by the compounds was then calculated using GraphPad Prism 6 and fitted with a log (inhibitor) vs. response-Variable slope mode. The fitting equation was: Y=Bottom+(Top-Bottom)/(1+10^((Log IC50−X)*HillSlope)), where Y represents the percentage of residual enzyme activity known and X represents the known concentration of compound after the logarithm.

MIA Paca-2 cells = test: Anti-proliferative effect by Cell Titer-Glo, MIA Paca-2; type: cell-based; details: Homo sapiens, read-out: IC50 measured value MIA Paca-2
Description: as §1, §2, §3

[1] = H1299 cells, 3 days, Cell Titer-Glo
[2] = 72 h, MIA Paca-2 cells, 3 days, Cell Titer-Glo

| SMILES | IC50 (H1299 cells; [1]) [nM] | IC50 (Wee1 protein) [nM] | IC50 (MIA Paca-2 cells; [2]) [nM] | IC50 (H1299 cells) [nM] | IC50 (MIA Paca-2 cells; MIA PaCa-2, 72 h) [nM] |
| --- | --- | --- | --- | --- | --- |
| CN(C)C1CCN(c2ccc(Nc3ncc4cnn(-c5cccc(N=S(C)(C)=O)n5)c4n3)cc2)CC1 [Compound 9] | – | 1 to 10 | – | 1000 to 5000 | – |
| CN1CCN(c2ccc(Nc3ncc4cnn(-c5cccc(N=S(C)(C)=O)c5)c4n3)nc2)CC1 [Compound 56] | 5000 to 20000 | 100 to 1000 | 5000 to 20000 | – | – |
| CN1CCN(c2c(Cl)cc(Nc3ncc4cnn(-c5cccc(N=S(C)(C)=O)n5)c4n3)cc2Cl)CC1 [Compound 17] | 5000 to 20000 | 10 to 100 | 100 to 1000 | – | – |
| CCN1C(=O)COc2ccc(-n3ncc4cnc(Nc5ccc(N6CCN(C)CC6)cc5)nc43)cc21 [Compound 59] | – | 10 to 100 | – | 100 to 1000 | 100 to 1000 |
| CN1CCN(c2ccc(Nc3ncc4cnn(-c5cccc(C6(S(C)(=O)=O)CC6)n5)c4n3)cc2)CC1 [Compound 5] | – | 10 to 100 | – | 1000 to 5000 | – |
| CN1CCN(c2ccc(Nc3ncc4c(C(F)(F)F)nn(-c5cccc(N=S(C)(C)=O)n5)c4n3)cc2)CC1 [Compound 24] | – | 10 to 100 | – | 1000 to 5000 | 1000 to 5000 |
| CCN1C(=O)C2(CC2)c2ccc(-n3ncc4cnc(Nc5ccc(N6CCN(C)CC6)cc5)nc43)cc21 [Compound 61] | – | 100 to 1000 | – | 5000 to 20000 | 1000 to 5000 |
| Cc1cc(Nc2ncc3cnn(-c4cccc(C(C)(C)O)n4)c3n2)ccc1N1CCN(C)CC1 [Compound 21] | 1000 to 5000 | 10 to 100 | 100 to 1000 | – | – |
| CN1CCN(C2CCN(c3ccc(Nc4ncc5cnn(-c6cccc(N=S(C)(C)=O)n6)c5n4)cc3)CC2)CC1 [Compound 20] | 1000 to 5000 | 1 to 10 | 100 to 1000 | – | – |
| CN1CCN(c2ccc(Nc3ncc4cnn(-c5ccc6nncn6c5)c4n3)cc2)CC1 [Compound 62] | 5000 to 20000 | 100 to 1000 | 1000 to 5000 | – | – |

The next lines start with results.

| IC50 (H1299 cells; [1]) [nM] | IC50 (Wee1 protein) [nM] | IC50 (MIA Paca-2 cells; [2]) [nM] | SMILES | IC50 (H1299 cells) [nM] | IC50 (MIA Paca-2 cells; MIA PaCa-2, 72 h) [nM] |
| --- | --- | --- | --- | --- | --- |
| 1000 to 5000 | 1 to 10 | – | CS(C)(=O)=Nc1cccc(-n2ncc3cnc(Nc4ccc5c(c4)CNCC5)nc32)n1 [Compound 7] | – | – |
| 100 to 1000 | 10 to 100 | 100 to 1000 | CN1CCN(c2ccc(Nc3ncc4cnn(-c5ccc(F)c(C(C)(C)O)c5)c4n3)cc2)CC1 [Compound 42] | – | – |
| 1000 to 5000 | 10 to 100 | 100 to 1000 | COc1nn(-c2cccc(N=S(C)(C)=O)n2)c2nc(Nc3ccc(N4CCN(C)CC4)cc3)ncc12 [Compound 27B] | – | – |
| 1000 to 5000 | 10 to 100 | 1000 to 5000 | CN1CCN(c2ccc(Nc3ncc4cnn(-c5ccc6ccncc6c5)c4n3)cc2)CC1 [Compound 36] | – | – |
| 100 to 1000 | 100 to 1000 | 100 to 1000 | CN1CCN(c2ccc(Nc3ncc4cnn(-c5cncc(C(C)(C)O)c5)c4n3)cc2)CC1 [Compound 32] | – | – |
| 1000 to 5000 | 10 to 100 | 1000 to 5000 | CN1CCN(c2ccc(Nc3ncc4cnn(-c5cccc(-n6ccccc6=O)c5)c4n3)cc2)CC1 [Compound 48] | – | – |
| 1000 to 5000 | 10 to 100 | 100 to 1000 | CN1CCN(c2ccc(Nc3ncc4cnn(-c5cccc(N=S(C)(C)=O)n5)c4n3)cc2F)CC1 [Compound 19] | – | – |
| 100 to 1000 | 100 to 1000 | 100 to 1000 | CN1CCN(c2ccc(Nc3ncc4cnn(-c5cccc6c5CCC6(C)O)c4n3)cc2)CC1 (stereo not drawn) [Compound 44] | – | – |
| 100 to 1000 | 1 to 10 | 100 to 1000 | CN1CCN(c2ccc(Nc3ncc4cnn(-c5cccc(N=S(C)(C)=O)n5)c4n3)cc2CO)CC1 [Compound 23] | – | – |
| 1000 to 5000 | 10 to 100 | 1000 to 5000 | CN1CCN(c2ccc(Nc3ncc4cnn(-c5ccc6cc[nH]c6c5)c4n3)cc2)CC1 [Compound 41] | – | – |
| < 100 | 10 to 100 | 100 to 1000 | Cc1nc2ccc(-n3ncc4cnc(Nc5ccc(N6CCN(C)CC6)cc5)nc43)cc2n1C [Compound 58] | – | – |
